Active and inactive are the calls of the source. How the calls were made is not given here.
Test system: CCRIS mutagenicity, Ames/micronucleus/aberration tests
Assay: CCRIS mutagenicity studies

O=[N+]([O-])c1cc2c3c(c1)CCc1c4c(cc(c1-3)CC2)CCCC4
mutagenic call (Test System: AMES SALMONELLA TYPHIMURIUM, Strain/Indicator: TA98(1,8-DNP6), Metabolic Activation: NONE): active; positive
mutagenic call (Test System: AMES SALMONELLA TYPHIMURIUM, Strain/Indicator: TA98(1,8-DNP6), Metabolic Activation: RAT, LIVER, S-9, AROCLOR 1254): active; positive
mutagenic call (Test System: AMES SALMONELLA TYPHIMURIUM, Strain/Indicator: TA98(NR), Metabolic Activation: NONE): active; positive
mutagenic call (Test System: AMES SALMONELLA TYPHIMURIUM, Strain/Indicator: TA98(NR), Metabolic Activation: RAT, LIVER, S-9, AROCLOR 1254): active; positive
mutagenic call (Test System: AMES SALMONELLA TYPHIMURIUM, Strain/Indicator: TA98, Metabolic Activation: NONE): active; positive
mutagenic call (Test System: AMES SALMONELLA TYPHIMURIUM, Strain/Indicator: TA98, Metabolic Activation: RAT, LIVER, S-9, AROCLOR 1254): active; positive
mutagenic call (Test System: AMES SALMONELLA TYPHIMURIUM, Strain/Indicator: TA100(NR), Metabolic Activation: NONE): active; positive
mutagenic call (Test System: AMES SALMONELLA TYPHIMURIUM, Strain/Indicator: TA100(NR), Metabolic Activation: RAT, LIVER, S-9, AROCLOR 1254): active; positive
mutagenic call (Test System: AMES SALMONELLA TYPHIMURIUM, Strain/Indicator: TA100, Metabolic Activation: NONE): active; positive
mutagenic call (Test System: AMES SALMONELLA TYPHIMURIUM, Strain/Indicator: TA100, Metabolic Activation: RAT, LIVER, S-9, AROCLOR 1254): active; positive
mutagenic call (Test System: AMES SALMONELLA TYPHIMURIUM, Strain/Indicator: TA104, Metabolic Activation: NONE): active; positive
mutagenic call (Test System: AMES SALMONELLA TYPHIMURIUM, Strain/Indicator: TA104, Metabolic Activation: RAT, LIVER, S-9, AROCLOR 1254): active; positive

c1ccc(NNc2ccccc2)cc1
mutagenic call (End Point: IN VITRO CHROMOSOMAL ABERRATIONS, Test System: CHINESE HAMSTER OVARY CELLS, Metabolic Activation: NONE): active; positive; statistically significant increase, but not dose-related
mutagenic call (End Point: IN VITRO CHROMOSOMAL ABERRATIONS, Test System: CHINESE HAMSTER OVARY CELLS, Metabolic Activation: RAT, LIVER, S-9, AROCLOR 1254): active; positive
mutagenic call (Test System: AMES SALMONELLA TYPHIMURIUM, Strain/Indicator: TA98, Metabolic Activation: HAMSTER, LIVER, S-9, AROCLOR 1254, Method: STANDARD PLATE): inactive; negative
mutagenic call (Test System: AMES SALMONELLA TYPHIMURIUM, Strain/Indicator: TA98, Metabolic Activation: HAMSTER, LIVER, S-9, Method: STANDARD PLATE): inactive; negative
mutagenic call (Test System: AMES SALMONELLA TYPHIMURIUM, Strain/Indicator: TA98, Metabolic Activation: MOUSE, LIVER, S-9, AROCLOR 1254, Method: STANDARD PLATE): inactive; negative
mutagenic call (Test System: AMES SALMONELLA TYPHIMURIUM, Strain/Indicator: TA98, Metabolic Activation: MOUSE, LIVER, S-9, Method: STANDARD PLATE): inactive; negative
mutagenic call (Test System: AMES SALMONELLA TYPHIMURIUM, Strain/Indicator: TA98, Metabolic Activation: NONE, Method: STANDARD PLATE): inactive; negative
mutagenic call (Test System: AMES SALMONELLA TYPHIMURIUM, Strain/Indicator: TA98, Metabolic Activation: RAT, LIVER, S-9, Method: STANDARD PLATE): inactive; negative
mutagenic call (Test System: AMES SALMONELLA TYPHIMURIUM, Strain/Indicator: TA100, Metabolic Activation: HAMSTER, LIVER, S-9, AROCLOR 1254, Method: STANDARD PLATE): inactive; negative
mutagenic call (Test System: AMES SALMONELLA TYPHIMURIUM, Strain/Indicator: TA100, Metabolic Activation: HAMSTER, LIVER, S-9, Method: STANDARD PLATE): inactive; negative
mutagenic call (Test System: AMES SALMONELLA TYPHIMURIUM, Strain/Indicator: TA100, Metabolic Activation: MOUSE, LIVER, S-9, AROCLOR 1254, Method: STANDARD PLATE): active; positive
mutagenic call (Test System: AMES SALMONELLA TYPHIMURIUM, Strain/Indicator: TA100, Metabolic Activation: MOUSE, LIVER, S-9, Method: STANDARD PLATE): inactive; negative
mutagenic call (Test System: AMES SALMONELLA TYPHIMURIUM, Strain/Indicator: TA100, Metabolic Activation: NONE, Method: STANDARD PLATE): inactive; negative
mutagenic call (Test System: AMES SALMONELLA TYPHIMURIUM, Strain/Indicator: TA100, Metabolic Activation: RAT, LIVER, S-9, AROCLOR 1254, Method: STANDARD PLATE): active; positive
mutagenic call (Test System: AMES SALMONELLA TYPHIMURIUM, Strain/Indicator: TA100, Metabolic Activation: RAT, LIVER, S-9, Method: STANDARD PLATE): inactive; negative
mutagenic call (Test System: AMES SALMONELLA TYPHIMURIUM, Strain/Indicator: TA1535, Metabolic Activation: HAMSTER, LIVER, S-9, AROCLOR 1254, Method: STANDARD PLATE): inactive; negative
mutagenic call (Test System: AMES SALMONELLA TYPHIMURIUM, Strain/Indicator: TA1535, Metabolic Activation: HAMSTER, LIVER, S-9, Method: STANDARD PLATE): inactive; negative
mutagenic call (Test System: AMES SALMONELLA TYPHIMURIUM, Strain/Indicator: TA1535, Metabolic Activation: MOUSE, LIVER, S-9, Method: STANDARD PLATE): inactive; negative
mutagenic call (Test System: AMES SALMONELLA TYPHIMURIUM, Strain/Indicator: TA1535, Metabolic Activation: NONE, Method: STANDARD PLATE): inactive; negative
mutagenic call (Test System: AMES SALMONELLA TYPHIMURIUM, Strain/Indicator: TA1535, Metabolic Activation: RAT, LIVER, S-9, AROCLOR 1254, Method: STANDARD PLATE): inactive; negative
mutagenic call (Test System: AMES SALMONELLA TYPHIMURIUM, Strain/Indicator: TA1535, Metabolic Activation: RAT, LIVER, S-9, Method: STANDARD PLATE): inactive; negative
mutagenic call (Test System: AMES SALMONELLA TYPHIMURIUM, Strain/Indicator: TA1537, Metabolic Activation: HAMSTER, LIVER, S-9, AROCLOR 1254, Method: STANDARD PLATE): inactive; negative
mutagenic call (Test System: AMES SALMONELLA TYPHIMURIUM, Strain/Indicator: TA1537, Metabolic Activation: HAMSTER, LIVER, S-9, Method: STANDARD PLATE): inactive; negative
mutagenic call (Test System: AMES SALMONELLA TYPHIMURIUM, Strain/Indicator: TA1537, Metabolic Activation: MOUSE, LIVER, S-9, AROCLOR 1254, Method: STANDARD PLATE): inactive; negative
mutagenic call (Test System: AMES SALMONELLA TYPHIMURIUM, Strain/Indicator: TA1537, Metabolic Activation: MOUSE, LIVER, S-9, Method: STANDARD PLATE): inactive; negative
mutagenic call (Test System: AMES SALMONELLA TYPHIMURIUM, Strain/Indicator: TA1537, Metabolic Activation: NONE, Method: STANDARD PLATE): inactive; negative
mutagenic call (Test System: AMES SALMONELLA TYPHIMURIUM, Strain/Indicator: TA1537, Metabolic Activation: RAT, LIVER, S-9, AROCLOR 1254, Method: STANDARD PLATE): inactive; negative
mutagenic call (Test System: AMES SALMONELLA TYPHIMURIUM, Strain/Indicator: TA1537, Metabolic Activation: RAT, LIVER, S-9, Method: STANDARD PLATE): inactive; negative
mutagenic call (Test System: AMES SALMONELLA TYPHIMURIUM, Strain/Indicator: TA1538, Metabolic Activation: HAMSTER, LIVER, S-9, AROCLOR 1254, Method: STANDARD PLATE): inactive; negative
mutagenic call (Test System: AMES SALMONELLA TYPHIMURIUM, Strain/Indicator: TA1538, Metabolic Activation: HAMSTER, LIVER, S-9, Method: STANDARD PLATE): inactive; negative
mutagenic call (Test System: AMES SALMONELLA TYPHIMURIUM, Strain/Indicator: TA1538, Metabolic Activation: MOUSE, LIVER, S-9, AROCLOR 1254, Method: STANDARD PLATE): inactive; negative
mutagenic call (Test System: AMES SALMONELLA TYPHIMURIUM, Strain/Indicator: TA1538, Metabolic Activation: MOUSE, LIVER, S-9, Method: STANDARD PLATE): inactive; negative
mutagenic call (Test System: AMES SALMONELLA TYPHIMURIUM, Strain/Indicator: TA1538, Metabolic Activation: NONE, Method: STANDARD PLATE): inactive; negative
mutagenic call (Test System: AMES SALMONELLA TYPHIMURIUM, Strain/Indicator: TA1538, Metabolic Activation: RAT, LIVER, S-9, AROCLOR 1254, Method: STANDARD PLATE): inactive; negative
mutagenic call (Test System: AMES SALMONELLA TYPHIMURIUM, Strain/Indicator: TA1538, Metabolic Activation: RAT, LIVER, S-9, Method: STANDARD PLATE): inactive; negative
mutagenic call (Test System: E. COLI, Strain/Indicator: WP2 UVRA, Metabolic Activation: HAMSTER, LIVER, S-9, AROCLOR 1254, Method: STANDARD PLATE): inactive; negative
mutagenic call (Test System: E. COLI, Strain/Indicator: WP2 UVRA, Metabolic Activation: HAMSTER, LIVER, S-9, Method: STANDARD PLATE): inactive; negative
mutagenic call (Test System: E. COLI, Strain/Indicator: WP2 UVRA, Metabolic Activation: MOUSE, LIVER, S-9, AROCLOR 1254, Method: STANDARD PLATE): inactive; negative
mutagenic call (Test System: E. COLI, Strain/Indicator: WP2 UVRA, Metabolic Activation: MOUSE, LIVER, S-9, Method: STANDARD PLATE): inactive; negative
mutagenic call (Test System: E. COLI, Strain/Indicator: WP2 UVRA, Metabolic Activation: NONE, Method: STANDARD PLATE): inactive; negative
mutagenic call (Test System: E. COLI, Strain/Indicator: WP2 UVRA, Metabolic Activation: RAT, LIVER, S-9, AROCLOR 1254, Method: STANDARD PLATE): inactive; negative
mutagenic call (Test System: E. COLI, Strain/Indicator: WP2 UVRA, Metabolic Activation: RAT, LIVER, S-9, Method: STANDARD PLATE): inactive; negative
